Results: US10647727B2, “Substituted pyrazolo/imidazolo bicyclic compounds as PDE2 inhibitors” (Merck Sharp & Dohme Corp., priority 2015, dated 2020)
Where two headings read alike, the source gives them in different places.

Assays:
[1] = target: human PDE2A1 (Homo sapiens (Human), UniProt O00408); assay: biochemical; format: biochemical
[2] = reported in Brandon et al. 2007; cited from earlier work
[3] = target: Rhesus PDE2A3 (Macaca mulatta, UniProt B3VTJ2); assay: PDE2 fluorescence polarization (IMAP FP) inhibition assay, rhesus enzyme; format: biochemical, rhesus macaque
Rhesus PDE2A3, sequence (B3VTJ2 1-941): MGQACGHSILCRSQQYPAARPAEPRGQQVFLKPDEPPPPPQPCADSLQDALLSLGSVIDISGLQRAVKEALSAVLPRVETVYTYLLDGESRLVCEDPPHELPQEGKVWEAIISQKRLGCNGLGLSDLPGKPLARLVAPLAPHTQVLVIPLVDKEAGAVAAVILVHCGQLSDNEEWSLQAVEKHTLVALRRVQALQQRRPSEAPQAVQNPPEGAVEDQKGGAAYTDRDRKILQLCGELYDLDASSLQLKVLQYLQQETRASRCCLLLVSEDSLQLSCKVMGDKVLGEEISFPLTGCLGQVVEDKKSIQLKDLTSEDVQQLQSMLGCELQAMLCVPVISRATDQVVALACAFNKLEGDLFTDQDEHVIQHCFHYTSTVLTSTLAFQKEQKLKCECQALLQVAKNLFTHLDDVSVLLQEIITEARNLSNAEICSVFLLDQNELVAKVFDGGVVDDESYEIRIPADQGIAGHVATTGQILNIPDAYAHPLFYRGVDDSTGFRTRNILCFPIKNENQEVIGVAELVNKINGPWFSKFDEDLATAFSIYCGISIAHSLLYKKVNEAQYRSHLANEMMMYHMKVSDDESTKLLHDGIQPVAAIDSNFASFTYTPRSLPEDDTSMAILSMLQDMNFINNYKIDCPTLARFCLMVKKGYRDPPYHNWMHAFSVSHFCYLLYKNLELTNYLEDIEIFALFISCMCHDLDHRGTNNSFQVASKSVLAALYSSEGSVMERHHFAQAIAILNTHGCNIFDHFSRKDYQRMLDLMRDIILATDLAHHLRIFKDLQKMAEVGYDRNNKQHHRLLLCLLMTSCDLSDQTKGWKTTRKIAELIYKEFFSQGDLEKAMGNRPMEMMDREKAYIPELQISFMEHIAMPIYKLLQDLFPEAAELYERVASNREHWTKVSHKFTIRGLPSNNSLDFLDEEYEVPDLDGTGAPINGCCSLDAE

[4] = read-out: Human PDE2 Ki (nM) Lab B
[5] = Lab A, read-out: Rhesus PDE2 Ki (nM) Lab A
[6] = Lab A, read-out: Human PDE2 Ki (nM) Lab A
[7] = Lab B, read-out: Rhesus PDE2 Ki (nM) Lab B
[8] = Lab B, read-out: Human PDE2 Ki (nM) Lab B

human PDE2A1, sequence (O00408 other isoform, or with tags, fused parts or gaps): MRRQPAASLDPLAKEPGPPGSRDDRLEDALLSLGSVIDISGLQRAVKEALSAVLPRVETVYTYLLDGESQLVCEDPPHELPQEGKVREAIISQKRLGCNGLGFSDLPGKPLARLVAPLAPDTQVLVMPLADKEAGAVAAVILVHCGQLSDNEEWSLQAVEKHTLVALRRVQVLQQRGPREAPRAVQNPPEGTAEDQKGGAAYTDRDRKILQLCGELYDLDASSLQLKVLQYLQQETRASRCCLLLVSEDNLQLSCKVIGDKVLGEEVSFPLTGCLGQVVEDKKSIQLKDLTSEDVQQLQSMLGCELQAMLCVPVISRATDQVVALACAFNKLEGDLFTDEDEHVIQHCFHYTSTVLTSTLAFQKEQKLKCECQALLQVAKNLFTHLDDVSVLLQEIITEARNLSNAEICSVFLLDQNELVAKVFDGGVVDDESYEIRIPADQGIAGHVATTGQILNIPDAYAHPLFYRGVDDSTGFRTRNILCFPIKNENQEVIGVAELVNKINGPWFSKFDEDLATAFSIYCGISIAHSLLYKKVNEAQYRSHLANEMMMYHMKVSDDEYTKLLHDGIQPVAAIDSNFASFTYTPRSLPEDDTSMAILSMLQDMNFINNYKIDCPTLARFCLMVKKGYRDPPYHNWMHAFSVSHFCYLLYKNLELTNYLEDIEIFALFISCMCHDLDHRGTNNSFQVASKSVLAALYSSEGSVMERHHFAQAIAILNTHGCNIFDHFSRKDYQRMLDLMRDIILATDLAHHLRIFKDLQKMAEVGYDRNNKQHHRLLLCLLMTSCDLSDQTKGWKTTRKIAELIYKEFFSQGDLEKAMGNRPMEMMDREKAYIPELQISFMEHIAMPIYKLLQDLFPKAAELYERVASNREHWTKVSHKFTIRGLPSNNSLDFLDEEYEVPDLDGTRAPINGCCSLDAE

Compound: CC(C)(O)C(Nc1nc(C(F)(F)F)cc2nccn12)c1ccc(C(F)(F)F)c(F)c1 (single isomer, unassigned) [Example 33, (R or S)-1-[3-Fluoro-4-(trifluoromethyl)phenyl]-2-methyl-1-{[7-(trifluoromethyl)imidazo[1,2-c]pyrimidin-5-yl]amino}propan-2-ol]
- Ki [1, 4]: 1330 nM

Compound: CC(C)(O)C(Nc1nc(C(F)(F)F)cc2nccn12)c1ccc(C(F)(F)F)c(F)c1 (single isomer, unassigned) [Example 34, (S or R)-1-[3-Fluoro-4-(trifluoromethyl)phenyl]-2-methyl-1-{[7-(trifluoromethyl)imidazo[1,2-c]pyrimidin-5-yl]amino}propan-2-ol]
- Ki [1, 4]: > 2960 nM

Compound: COc1ccc(Cc2nn3c([C@@H](CCCc4ccccc4)[C@@H](C)O)nc(C)c3c(=O)[nH]2)cc1OC [Bay 60-7550]
- brain penetration [2]: limited

Compound: CC(C)c1ccc(C(C)Nc2nc(Cl)nc3c2cnn3C)cc1 (stereo not shown) [Example 5, 6-Chloro-1-methyl-N-{1-[4-(1-methylethyl)-phenyl]ethyl}-1H-pyrazolo-[3,4-d]pyrimidin-4-amine]
- Ki [3, 5]: 401 nM

Compound: CCC(Nc1nc(Cl)nc2c1cnn2C)c1ccc(C(C)C)cc1 (stereo not shown) [Example 6, 6-Chloro-1-methyl-N-{1-[4-(1-methylethyl)-phenyl]propyl}-1H-pyrazolo-[3,4-d]pyrimidin-4-amine]
- Ki [3, 5]: 468 nM

Compound: CC(Nc1nc(Cl)nc2c1cnn2C)c1ccc(-n2cccn2)cc1 (stereo not shown) [Example 7, 6-Chloro-1-methyl-N-{1-[4-(1H-pyrazol-1-yl)phenyl]-ethyl}-1H-pyrazolo[3,4-d]-pyrimidin-4-amine]
- Ki [3, 5]: 2650 nM

Compound: C[C@H](c1ccc(C(F)(F)F)cc1)N(C)c1nc(Cl)nc2c1cnn2C [Example 14, 6-Chloro-N,1-dimethyl-N-{(1R)-1-[4-(trifluoromethyl)phenyl]ethyl}-1H-pyrazolo[3,4-d]pyrimidin-4-amine]
- Ki [3, 5]: 137 nM
- Ki [1, 6]: 65 nM

Compound: CN(Cc1ccc(C(F)(F)F)cc1)c1nc(Cl)nc2c1cnn2C [Example 15, 6-Chloro-N,1-dimethyl-N-[4-(trifluoromethyl)-benzyl]-1H-pyrazolo-[3,4-d]pyrimidin-4-amine]
- Ki [3, 5]: 997 nM

Compound: CCN(Cc1ccc(C(F)(F)F)cc1)c1nc(Cl)nc2c1cnn2C [Example 16, 6-Chloro-N-ethyl-1-methyl-N-[4-(trifluoromethyl)-benzyl]-1H-pyrazolo-[3,4-d]pyrimidin-4-amine]
- Ki [3, 5]: 866 nM
- Ki [1, 6]: 429 nM

Compound: CN(c1nc(Cl)nc2c1cnn2C)C1(c2ccc(C(F)(F)F)cc2)CC1 [Example 17, 6-Chloro-N,1-dimethyl-N-{1-[4-(trifluoromethyl)phenyl]cyclopropyl}-1H-pyrazolo[3,4-d]pyrimidin-4-amine]
- Ki [3, 5]: 1.5 nM
- Ki [3, 7]: 6 nM
- Ki [1, 8]: 3.8 nM

Compound: CC(Nc1nc(Cl)nc2c1cnn2C(C)C)c1ccc(C(F)(F)F)cc1 (stereo not shown) [Example 18, 6-Chloro-1-(1-methylethyl)-N-{1-[4-(trifluoromethyl)phenyl]ethyl}-1H-pyrazolo[3,4-d]pyrimidin-4-amine]
- Ki [3, 5]: 1970 nM

Compound: Cn1ncc2c(NC3(c4ccc(C(F)(F)F)cc4)CC3)nc(C(F)(F)F)nc21 [Example 19, 1-Methyl-6-(trifluoromethyl)-N-(1-(4-(trifluoromethyl)phenyl)cyclopropyl)-1H-pyrazolo[3,4-d]pyrimidin-4-amine]
- Ki [3, 7]: 80 nM
- Ki [1, 8]: 67 nM

Compound: Cc1nc(N[C@H](C)c2ccc(C(F)(F)F)cc2)c2cnn(C)c2n1 [Example 21, 1,6-Dimethyl-N-{(1R)-1-[4-(trifluoromethyl)-phenyl]ethyl}-1H-pyrazolo[3,4-d]-pyrimidin-4-amine]
- Ki [3, 5]: 194 nM
- Ki [1, 6]: 140 nM

Compound: Cc1nc(NC2(c3ccc(OC(F)(F)F)c(F)c3)CC2)c2cnn(C)c2n1 [Example 22]
- Ki [3, 7]: 55 nM
- Ki [1, 8]: 35 nM

Compound: Cc1nc(NC2(c3ccc(SC(F)(F)F)cc3)CC2)c2cnn(C)c2n1 [Example 23, 1,6-Dimethyl-N-(1-{4-[(trifluoromethyl)-sulfanyl]phenyl}-cyclopropyl)-1H-pyrazolo[3,4-d]-pyrimidin-4-amine]
- Ki [3, 7]: 20 nM
- Ki [1, 8]: 16 nM

Compound: Cc1nc(NC2(c3ccc(C(F)(F)F)cc3F)CC2)c2cnn(C)c2n1 [Example 24, N-{1-[2-Fluoro-4-(trifluoromethyl)-phenyl]cyclo-propyl}-1,6-dimethyl-1H-pyrazolo[3,4-d]-pyrimidin-4-amine]
- Ki [1, 8]: 29 nM

Compound: Cc1nc(NC2(c3ccc(C(F)(F)F)cc3)CCC2)c2cnn(C)c2n1 [Example 25, 1,6-Dimethyl-N-{1-[4-(trifluoro-methyl)phenyl]-cyclobutyl}-1H-pyrazolo[3,4-d]-pyrimidin-4-amine]
- Ki [3, 7]: 358 nM
- Ki [1, 8]: 430 nM

Compound: Cc1nc(N(C)C2(c3ccc(C(F)(F)F)cc3)CC2)c2cnn(C)c2n1 [Example 26, N,1,6-Trimethyl-N-{1-[4-(trifluoromethyl)phenyl]cyclopropyl}-1H-pyrazolo[3,4-d]pyrimidin-4-amine]
- Ki [1, 8]: 4.9 nM

Compound: Cc1nc(NC2(c3ccc(C(F)(F)F)c(F)c3)CC2)c2cnn(CC(F)(F)F)c2n1 [Example 28, N-{1-[3-Fluoro-4-(trifluoromethyl)phenyl]cyclopropyl}-6-methyl-1-(2,2,2-trifluoroethyl)-1H-pyrazolo[3,4-d]pyrimidin-4-amine]
- Ki [3, 7]: 98 nM
- Ki [1, 8]: 76 nM

Compound: Cn1ncc2c(NC3(c4ccc(C(F)(F)F)cc4)CC3)nc(C#N)nc21 [Example 29, 1-Methyl-4-{1-[4-(trifluoromethyl)phenyl]cyclopropylamino}-1H-pyrazolo[3,4-d]pyrimidine-6-carbonitrile]
- Ki [3, 7]: 47 nM
- Ki [1, 8]: 39 nM

Compound: Cc1nc(OC2(c3ccc(C(F)(F)F)cc3)CC2)c2cnn(C)c2n1 [Example 30, 1,6-Dimethyl-4-({1-[4-(trifluoromethyl)phenyl]cyclopropyl}oxy)-1H-pyrazolo[3,4-d]pyrimidine]
- Ki [1, 8]: 32 nM

Compound: Cc1cc(NC2(c3ccc(C(F)(F)F)c(F)c3)CC2)n2ccnc2n1 [Example 31, N-(1-(3-Fluoro-4-(trifluoromethyl)phenyl)cyclopropyl)-7-methylimidazo[1,2-a]pyrimidin-5-amine]
- Ki [1, 4]: 55 nM

Compound: Cc1cc(N[C@@H](c2ccc(C(F)(F)F)c(F)c2)C(C)(C)C)n2ccnc2n1 [Example 32, (R)—N-(1-(3-Fluoro-4-(trifluoromethyl)phenyl)-2,2-dimethylpropyl)-7-methylimidazo[1,2-a]pyrimidin-5-amine]
- Ki [1, 8]: 51 nM

Compound: Cc1nc(N[C@@H](c2ccc(C(F)(F)F)c(F)c2)C(C)(C)C)c2nc[nH]c2n1 [Example 35]
- Ki [1, 8]: 566 nM

Compound: Cc1nc(NC2(c3ccc(C(F)(F)F)c(F)c3)CC2)c2nc[nH]c2n1 [Example 36, N-{1-[3-Fluoro-4-(trifluoromethyl)phenyl]cyclopropyl}-2-methyl-9H-purin-6-amine]
- Ki [1, 8]: 206 nM

Compound: Cc1nc(NC2(c3ccc(C(F)(F)F)c(F)c3)CC2)c2ncn(C)c2n1 [Example 37, N-(1-(3-Fluoro-4-(trifluoromethyl)phenyl)cyclopropyl)-2,9-dimethyl-9H-purin-6-amine]
- Ki [1, 8]: 115 nM

Compound: Cc1cc(NC2(c3ccc(C(F)(F)F)c(F)c3)CC2)n2ncc(C#N)c2n1 [Example 39, 7-((1-(3-Fluoro-4-(trifluoromethyl)phenyl)cyclopropyl)amino)-5-methylpyrazolo[1,5-a]pyrimidine-3-carbonitrile]
- Ki [1, 8]: 503 nM

Compound: Cc1cc(N[C@@H](c2ccc(C(F)(F)F)c(F)c2)C(C)(C)C)n2ncc(C#N)c2n1 [Example 40, 7-({(1R)-1-[3-Fluoro-4-(trifluoromethyl)phenyl]-2,2-dimethylpropyl}amino)-5-methylpyrazolo[1,5-a]pyrimidine-3-carbonitrile]
- Ki [1, 8]: 462 nM

Compound: Cc1cc(NC2(c3ccc(C(F)(F)F)c(F)c3)CC2)n2ncc(N)c2n1 [Example 41, N^7-{1-[3-Fluoro-4-(trifluoromethyl)phenyl]cyclopropyl}-5-methylpyrazolo[1,5-a]pyrimidine-3,7-diamine]
- Ki [1, 8]: 337 nM

Compound: Cc1cc(N[C@@H](c2ccc(C(F)(F)F)c(F)c2)C(C)(C)C)n2ncc(N)c2n1 [Example 42, N^7-{(1R)-1-[3-Fluoro-4-(trifluoromethyl)phenyl]-2,2-dimethylpropyl}-5-methylpyrazolo[1,5-a]pyrimidine-3,7-diamine]
- Ki [1, 8]: 580 nM

Compound: Cc1cc(NC2(c3ccc(C(F)(F)F)c(F)c3)CC2)n2nc(CO)cc2n1 [Example 43, [7-({1-[3-Fluoro-4-(trifluoromethyl)phenyl]cyclopropyl}amino)-5-methylpyrazolo[1,5-a]pyrimidin-2-yl]methanol]
- Ki [1, 8]: 169 nM

Compound: Cc1cc(NC2(c3ccc(C(F)(F)F)c(F)c3)CC2)n2ncc(CO)c2n1 [Example 45, [7-({1-[3-Fluoro-4-(trifluoromethyl)phenyl]cyclopropyl}amino)-5-methylpyrazolo[1,5-a]pyrimidin-3-yl]methanol]
- Ki [1, 8]: 682 nM

Compound: Cc1cc(N[C@@H](c2ccc(C(F)(F)F)c(F)c2)C(C)(C)C)n2ncc(CO)c2n1 [Example 46]
- Ki [1, 8]: ~2640 nM

Compound: Cc1cc(NC2(c3ccc(C(F)(F)F)c(F)c3)CC2)n2nccc2n1 [Example 47, N-{1-[3-Fluoro-4-(trifluoromethyl)phenyl]cyclopropyl}-5-methylpyrazolo[1,5-a]pyrimidin-7-amine]
- Ki [1, 8]: 199 nM

Compound: Cc1cc(N[C@@H](c2ccc(C(F)(F)F)c(F)c2)C(C)(C)C)n2nccc2n1 [Example 48, N-{(1R)-1-[3-Fluoro-4-(trifluoromethyl)phenyl]-2,2-dimethylpropyl}-5-methylpyrazolo[1,5-a]pyrimidin-7-amine]
- Ki [1, 8]: 174 nM
